Laboratory results from patent US11395833B2, “Process for the preparation and purification of the sodium salt of hyaluronic acid” (priority 2016, dated 2022).

assay: LAL test for bacterial endotoxins (Ph. Eur. 5.0, 2.6.14); conditions: analysis of the product according to Ph. Eur. 5.0
Protocol: LAL Test: the basis of the LAL test is the capacity of the amebocytes extracted from blood of Limulus polyphemus to gel in the presence of bacterial endotoxins from Gram-negatives, primarily responsible for the pyrogen effect. This test is carried out according to Ph. Eur. 5.0, 2.6.14.

With sodium salt of HA [Example 1] as the substance, how does the “Bacterial endotoxins (LAL test)” value read?
Its value is 0.012 EU/mg.

With sodium salt of HA [Example 2] as the substance, how does the “Bacterial endotoxins (LAL test)” value read?
The value was 0.012 EU/mg.

Which “Bacterial endotoxins (LAL test)” value does the source give for sodium salt of HA [Example 3] here?
The value was 0.0075 EU/mg.
